Laboratory results as given in US8916597B2, “Use of pyraclostrobin as safener for triticonazole for controlling harmful fungi” (BASF SE, priority 2005, dated 2014).

System: bentgrass
Test: Seed treatment of bentgrass: ground coverage by emerged plants (safener action)
Type: in vivo
Method: Seeds were treated with the two active compounds individually or with mixtures of both active compounds, and the development of the plants was then observed. When the mixtures were used, the negative effects of one or both mixing partners in the case of individual application were, if at all, observed at a reduced level.
Seeds of bentgrass were seed-treated with the products and concentrations listed. Triticonazol and Pyraclostrobin were used as 200 g/l FS-formulation.
Treated sees were planted at the day of treatment and then kept under humid conditions in the greenhouse. 9 days after plating the ground coverage by emerged plants were estimated in percentage.

## COC(=O)N(OC)c1ccccc1COc1ccn(-c2ccc(Cl)cc2)n1 [Pyraclostrobin, pyraclostrobin]
10 g a.i./100 kg seed of each active compound (200 g/l FS-formulation), greenhouse, humid conditions, ground coverage by emerged plants estimated 9 days after planting, untreated 8.5%
  % covered ground: 13.3%
Mixture versus individual application
  safener action: negative effect of triticonazole on plant development: negative effect of TTZ can be compensated
